The assay concerns the target MCL-1 (Homo sapiens (Human), UniProt Q07820, K194A/K197A/R201A). Briefly: Protein-protein interaction assay MCL-1/Noxa BH3 peptide (MCL-1 assay, TR-FRET). Format: binding. As to conditions: MBP-MCL-1 / Noxa BH3 peptide, median. A digest of the protocol: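 TR-FRET competition assay read at 665/620 nm, with a Noxa BH3 tracer peptide (1 nM) plus Eu-cryptate anti-MBP and XL665-streptavidin. Compounds (0.1 nM-20 μM, duplicates) were pre-equilibrated 10 min at 22° C with 1 nM MBP-MCL-1 (173-329) in Tris pH 7, NaCl, KF, DTT buffer, then incubated 1 h at 22° C and overnight at 4° C. IC50 came from 4-parameter regression.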

Consider eleven compounds from patent US11401278B2, “Macrocyclic indole derivatives” (The Broad Institute, Inc., priority 2017, dated 2022).

The term IC50 denotes the concentration that gives 50% inhibition.

MCL-1, sequence (Q07820 whole entry K194A/K197A/R201A, looked up): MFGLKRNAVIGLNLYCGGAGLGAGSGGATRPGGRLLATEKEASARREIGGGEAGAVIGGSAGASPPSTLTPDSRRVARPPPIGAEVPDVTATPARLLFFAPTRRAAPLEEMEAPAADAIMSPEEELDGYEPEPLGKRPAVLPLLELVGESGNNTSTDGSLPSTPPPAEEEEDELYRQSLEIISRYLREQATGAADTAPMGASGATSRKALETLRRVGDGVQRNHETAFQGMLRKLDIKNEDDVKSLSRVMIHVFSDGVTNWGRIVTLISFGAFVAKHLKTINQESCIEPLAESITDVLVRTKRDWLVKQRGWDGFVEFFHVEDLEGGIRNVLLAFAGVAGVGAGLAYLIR

With `CCNCC.CCc1c2c(nn1C)C(CCN1CCOCC1)N(C)S(=O)(=O)CCCn1c(C(=O)O)c(CCCOc3cccc4cc(F)ccc34)c3ccc(Cl)c-2c31` (single isomer, unassigned; enantiomer 2) [Example 76, 4-chloro-3-ethyl-7-{3-[(6-fluoronaphthalen-1-yl)oxy]propyl}-2,14-dimethyl-15-[2-(morpholin-4-yl)ethyl]-13,13-dioxo-10,11,12,13,14,15-hexahydro-2H-13lambda^6-pyrazolo[3′,4′:4,5][1,2,8]thiadiazacycloundecino[6,7,8-hi]indole-8-carboxylic acid-N-ethylethanamine Salt (Enantiomer 2)], it took 0.59 nM to reach half-maximal inhibition (IC50). For the compound `CCc1c2c(nn1C)C(CCC1CCOCC1)N(C)S(=O)(=O)CCCn1c(C(=O)O)c(CCCOc3cccc4cc(F)ccc34)c3ccc(Cl)c-2c31` (single isomer, unassigned; enantiomer 3) [Example 63, (+)-4-chloro-3-ethyl-7-{3-[(6-fluoronaphthalen-1-yl)oxy]propyl}-2,14-dimethyl-15-[2-(oxan-4-yl)ethyl]-13,13-dioxo-10,11,12,13,14,15-hexahydro-2H-13lambda^6-pyrazolo[3′,4′:4,5][1,2,8]thiadiazacycloundecino[6,7,8-hi]indole-8-carboxylic acid (Enantiomer 3)], half-maximal inhibition (IC50) was put at 1.1 nM. The compound `CCc1c2c(nn1C)C(CCC1CCOCC1)N(C)S(=O)(=O)CCCn1c(C(=O)O)c(CCCOc3cccc4cc(F)ccc34)c3ccc(Cl)c-2c31` (single isomer, unassigned; enantiomer 4) [Example 64, (−)-4-chloro-3-ethyl-7-{3-[(6-fluoronaphthalen-1-yl)oxy]propyl}-2,14-dimethyl-15-[2-(oxan-4-yl)ethyl]-13,13-dioxo-10,11,12,13,14,15-hexahydro-2H-13lambda^6-pyrazolo[3′,4′:4,5][1,2,8]thiadiazacycloundecino[6,7,8-hi]indole-8-carboxylic acid (Enantiomer 4)] gave an IC50 of 21 nM. On to `CCc1c2c(nn1C)CN(C)S(=O)(=O)CCCn1c(C(=O)O)c(CCCOc3cccc4ccccc34)c3ccc(Cl)c-2c31` [Example 20, (rac)-13-Chloro-12-ethyl-8,11-dimethyl-1-(3-(naphthalen-1-yloxy)propyl)-5,6,9,11-tetrahydro-4H,8H-pyrazolo[3′,4′:4,5][1]thia[2,8]diazacycloundecino[6,7,8-hi]indole-2-carboxylic acid 7,7-dioxide], for which inhibition was half-maximal at 2.7 nM (IC50). Next, `CCc1c2c(nn1C)CN(C)S(=O)(=O)CCCn1c(C(=O)O)c(CCCOc3cccc4c3CCC4)c3ccc(Cl)c-2c31` [Example 21, (rac)-13-Chloro-1-(3-((2,3-dihydro-1H-inden-4-yl)oxy)propyl)-12-ethyl-8,11-dimethyl-5,6,9,11-tetrahydro-4H,8H-pyrazolo[3′,4′:4,5][1]thia[2,8]diazacycloundecino[6,7,8-hi]indole-2-carboxylic acid 7,7-dioxide]: 1.7 nM. In turn, `CCc1c2c(nn1C)CN(C)S(=O)(=O)CCCn1c(C(=O)O)c(CCCOc3cc(C)c(Cl)c(C)c3)c3ccc(Cl)c-2c31` [Example 22, (rac)-13-Chloro-1-(3-(4-chloro-3,5-dimethylphenoxy)propyl)-12-ethyl-8,11-dimethyl-4,5,6,8,9,11-hexahydropyrazolo[3′,4′:4,5][1,2,8]thiadiazacycloundecino[6,7,8-hi]indole-2-carboxylic acid 7,7-dioxide] came in with an IC50 of 3.1 nM. Next, `CCc1c2c(nn1C)CN(C)S(=O)(=O)CCCn1c(C(=O)O)c(CCCOc3cccc4c3CCCC4)c3ccc(Cl)c-2c31` [Example 23, (rac)-13-Chloro-12-ethyl-8,11-dimethyl-1-(3-((5,6,7,8-tetrahydronaphthalen-1-yl)oxy)propyl)-4,5,6,8,9,11-hexahydropyrazolo[3′,4′:4,5][1,2,8]thiadiazacycloundecino[6,7,8-hi]indole-2-carboxylic acid 7,7-dioxide]: 3.3 nM; `CCc1c2c(nn1C)CN(C)S(=O)(=O)CCCn1c(C(=O)O)c(CCCOc3ccc(F)c4ccccc34)c3ccc(Cl)c-2c31` [Example 24, (rac)-13-Chloro-12-ethyl-1-(34(4-fluoronaphthalen-1-yl)oxy)propyl)-8,11-dimethyl-4,5,6,8,9,11-hexahydropyrazolo[3′,4′:4,5][1,2,8]thiadiazacycloundecino[6,7,8-hi]indole-2-carboxylic acid 7,7-dioxide]: 3.4 nM. Next, `Cc1c2c(nn1C)CN(C)S(=O)(=O)CCCn1c(C(=O)O)c(CCCOc3ccc(F)c4ccccc34)c3ccc(F)c-2c31` [Example 30, (rac)-13-Fluoro-1-(34(4-fluoronaphthalen-1-yl)oxy)propyl)-8,11,12-trimethyl-5,6,9,11-tetrahydro-4H,8H-pyrazolo[3′,4′:4,5][1]thia[2,8]diazacycloundecino[6,7,8-hi]indole-2-carboxylic acid 7,7-dioxide]: 5.1 nM. Next, `Cc1c2c(nn1C)CN(C1CC1)S(=O)(=O)CCCn1c(C(=O)O)c(CCCOc3cccc4ccccc34)c3ccc(Cl)c-2c31` [Example 40, (rac)-4-chloro-14-cyclopropyl-2,3-dimethyl-7-[3-(1-naphthyloxy)propyl]-11,12,14,15-tetrahydro-2H,10H-pyrazolo[3′,4′:4,5][1,2,8]thiadiazacycloundecino[6,7,8-hi]indole-8-carboxylic acid 13,13-dioxide]: 2.1 nM; `CCc1c2c(nn1C)CN(CCN1CCOCC1)S(=O)(=O)CCCn1c(C(=O)O)c(CCCOc3cccc4cc(F)ccc34)c3ccc(Cl)c-2c31` [Example 77, (rac)-13-chloro-12-ethyl-1-(3-((6-fluoronaphthalen-1-yl)oxy)propyl)-11-methyl-8-(2-morpholinoethyl)-5,6,9,11-tetrahydro-4H,8H-pyrazolo[3′,4′:4,5][1]thia[2,8]diazacycloundecino[6,7,8-hi]indole-2-carboxylic acid 7,7-dioxide]: 6.2 nM.
